From patent publication US4874776A, “Compound having mucus regulating and elastase-inhibitory activities, for the therapy of pulmonal emphysema and pulmonal fibrosis” (Yason S.r.l., priority 1988, dated 1989)

Tests used:
[1] = test system: hepatic intoxication induced by carbon tetrachloride; test: Hepato-protecting activity, hepatic intoxication induced by carbon tetrachloride; type: in vivo, rat; conditions: male Wistar rats, 100 mg/kg i.p.; for GPT x ± es: 15 minutes before CCl4 0,15 ml/kg oral, 24 hours; for GPT % INHIBITION VS. CONTROLS: CCl4 0,15 ml/kg
Method: Hepato-protecting activity of YS 795 was evaluated in comparison with N-acetylcystein, by means of the test of hepatic intoxication induced by carbon tetrachloride, according to the method by Sanna et al. (Experientia, 32 (1), 91, 1976).
Male Wistar rats (268-346 g body weight) fasted for 18 hours, with water "ad libitum", were used.
YS 795 and N-acetylcystein were administered intraperitoneally at the dose of 100 mg/kg, whereas the control group received the only carrier.
15 minutes after the drug administration, the animals were treated orally with 0,15 ml/kg of carbon tetrachloride.
After 24 more hours, the animals were killed by bleeding after ether anesthesia.

[2] = test system: secretion of respiratory tract; test: Bronchosecretagogue activity, sodium fluoresceine test; type: in vivo, rat; conditions: male Wistar rats, 100 mg/kg; for SODIUM FLUORESCEINE: 10 animals
Method: Bronchosecretagogue activity was evaluated by means of sodium fluoresceine test, according to the procedure by Mawatari ("Experimental studies on the expectorant action of several drugs" Kagoshima Kaigaken Igaken Zasshi 27, 561, 1976), said test consisting in determining the sodium fluoresceine amount eliminated from respiratory tract: the higher the secretion, the higher the amount of sodium fluoresceine eliminated. Accordingly, any compound increasing the secretion of respiratory tract causes an increase in sodium fluoresceine elimination, which can easily be calculated.
Male Wistar rats (100-200 g body weight), fasted for 18 hours, with water "ad libitum", were administered with YS 795 at the dose of 100 mg/kg and, by comparison, with carboxymethyl cystein at equiponderal doses, by the oral route.
30 minutes after the treatment, sodium fluoresceine was injected subcutaneously and 30 minutes after the animals were killed by bleeding. The whole respiratory tree was then withdrawn and the percentage of sodium fluoresceine present was evaluated.

[3] = Acute toxicity (LD50, Litchfield and Wilcoxon) in the rat; conditions: in vivo, read-out: DL50 (the source's name)
Method: (§1) Acute toxicity of YS 795 was calculated in the rat and the mouse after both oral and intraperitoneal administrations.
(§2) LD50 was determined according to the method of Litchfield and Wilcoxon (J. Pharmacol. Exp. Therap. 96, 99-118, 1949).

[4] = Acute toxicity (LD50, Litchfield and Wilcoxon) in the mouse; conditions: in vivo, read-out: DL50 (the source's name)
Method: as §1, §2

elastase = test: Elastase-inhibitory activity; type: biochemical
Method: Inhibition of elastase activity by YS 795 was evaluated according to the method by D. A. Hall, S. El Ridi (Methods of connective tissue research, Ioyson-Bruvvers Ltd.; Oxford--1976) and by R. M. Senior et al. (Elastine and elastic Tissue, Plenum Press, pp. 249-254, New York--1977).

[5] = test system: emphysema induced by porcine pancreatic elastase; test: Emphysema induced by porcine pancreatic elastase in the hamster; type: in vivo
Method: Emphysema induced by porcine pancreatic elastase in the hamster.
Capability of YS 795 in preventing emphysema caused by instillation of elastase was studied according to the method by Stone P. J. et al. (Am. Rev. Respir. Dis.; 124/1; 1981) and by Yu et al. ("Elastin and elastic tissues"; Plenum Press; New York; 1977).
16 Hamsters weighing 100-120 g were divided in 4 groups of 4 animals each (Groups A, B, C and controls) and treated as follows:
Group A: in tratracheal instillation of 0,1 mg of porcine pancreatic elastase 1 hour after administration of 100 mg/kg of YS 795.
Group B: YS 795 was administered 1 hour after elastase instillation.
Group C: YS 795 was administered 4 hours after elastase instillation.
Controls: physiological saline was administered 1 hour after elastase instillation.
At set times (72 hours and 12 days), the animals were killed after intraperitoneal anesthesia with pentobarbital. Lungs were intubated through trachea and fixed.
Morphological and morphometrical analysis of the pulmonal sections were then carried out under a microscope.

collagenase = test: Collagenase inhibitory activity; type: biochemical; conditions: read-out: IC50 collagenase inhibition
Method: The inhibition of collagenase by means of YS 795 was evaluated according to the method by C. L. Hu, G. Crombie, C. Franzeblau (Analyt., Biochem. 88, 638, 1978).

[6] = Pharmacokinetics, plasma and tissue concentrations by gaschromatographic analysis; type: in vivo; conditions: rat
Method: Male CD-COBS rats weighing 200-220 g were used, treated with YS 795 and 4-thiazolidine-carboxylic acid by the oral or intraperitoneal route, in equimolecular amounts (YS 795=795=100 mg/kg; thiazolidine-carboxylic acid =65 mg/kg).
One hour after the treatment the animals were killed by beheading; blood was collected in heparinized test-tubes and centrifuged for 10 minutes at 3500 rpm to prepare plasma. The tissues (liver, lung, kidney and brain) were homogenized in 4 volumes of 0,05M phosphate buffer.
Tissular concentrations were studied by gaschromatographic analysis.

[7] = test system: patients affected by chronic bronchitis; test: Clinical study in patients affected by chronic bronchitis (tolerability and mucus regulating activity); type: in vivo, human; conditions: 3×300 mg capsules a day
Method: YS 795 in capsules was administered to hospitalized patients affected by chronic bronchitis, in order to test tolerability and mucus regulating activity.
10 patients, 5 males and 5 females, of 65-70 years age, smokers or ex-smokers, were treated with YS 795 administered at a dose of 3×300 mg capsules a day, in the morning, at noon and in the night, with full stomach, for a period of 4 weeks.
All drugs having mucolytic, bronchodynamic, steroidal and balsamic activities were excluded during the observation period, whereas the "routine" therapy of concomitant diseases, based on administration of diuretic, hypotensive, antidiabetic, vasodilating and antibiotic drugs, was continued.
Before and after the treatment, tests were carried out to evaluate possible side-effects of YS 795 on hemopoietic, hepatic and renal functions; heart rate and arterial pressure were further checked during the treatment.

[8] = Solubility of the obtained compound; type: physicochemical

For `CC(=O)N[C@@H](CS)C(=O)O` [N--ACETYLCYSTEIN, N-acetylcystein, reference compound], which “GPT x ± es” value [1] is on record?
Its value is 168,2 ± 8,68 U/L.

And the “GPT % INHIBITION VS. CONTROLS” value [1]?
Its value is 52,9%.

Which “SODIUM FLUORESCEINE % Δ vs. controls” value [2] does the source give for `NC(CSCC(=O)O)C(=O)O` (stereo not drawn) [S--CARBOXYMETHYLCYSTEIN, reference compound] here?
The value was 80,6%.

And the “SODIUM FLUORESCEINE” value [2]?
The value was 0,56 μg/ml.

What does the source list for `CCOC(=O)N1CSCC1C(=O)O` (stereo not drawn) [YS 795, N-carbethoxy-4-thiazolidine-carboxylic acid]?
LD50 ([3]; ip, female): 420 mg/kg; LD50 ([3]; ip, male): 415 mg/kg; LD50 ([3]; po, os, male): > 4000 mg/kg; LD50 ([4]; ip, female): 372 mg/kg; LD50 ([4]; ip, male): 380 mg/kg; LD50 ([4]; po, os, male): > 4000 mg/kg; IC50 (elastase): 11 mM; Effect of the time of administration on the antiemphysema effect ([5]; administered 1 hour before vs. 1 or 4 hours after elastase instillation): more marked when YS 795 was administered before elastase instillation; Antagonism of pulmonal emphysema (morphological and morphometrical analysis of pulmonal sections) ([5]; hamster, 100 mg/kg, 0,1 mg elastase intratracheal, 72 hours and 12 days): can antagonize pulmonal emphysema induced by porcine pancreatic elastase; IC50 (collagenase): 15 mM; SODIUM FLUORESCEINE % Δ vs. controls [2]: 70,9%; SODIUM FLUORESCEINE [2]: 0,53 μg/ml; GPT x ± es [1]: 220 ± 84,47 U/L; GPT % INHIBITION VS. CONTROLS [1]: 38,4%; Metabolism [6]: subsequently metabolized to n-thiazolidine-carboxylic acid; Time till which the compound is still found as such [6]: 12 h; Time of plasmatic concentration peak ([6]; after the administration): between the first and the second hour; Drug amounts in liver and lungs in comparison with thiazolidine-carboxylic acid ([6]; equimolecular amounts (100 mg/kg vs. 65 mg/kg)): remarkanly higher; Tissue distribution (liver, lung, kidney, brain) ([6]; found as such and as thiazolidine-carboxylic derivative): present in all the examined tissues; Absorption ([6]; oral and intraperitoneal route, 100 mg/kg): well adsorbed by both oral and intraperitonel route; Fluidifying and mucus regulating activities ([7]; patients with chronic bronchitis, 4 weeks): good fluidifying and mucus regulating activities; Effects on arterial pressure and heart rate ([7]; patients, 4 weeks): no clinically significant effects; Tolerability at gastric level ([7]; patients, 4 weeks): well tolerated; Effect on hemopoietic, hepatic and renal functions (laboratory tests) ([7]; patients, before and after 4 weeks): does not affect hemopoietic, hepatic and renal functions; Solubility in common organic solvents ([8]; common organic solvents): soluble in common organic solvents; Solubility in water ([8]; water): unsoluble in water
